Results taken from the supplement of paper PMC10307832.

Experiments:
Assay in all cases: relative viability (nuclei count vs DMSO), 5 days (fraction); higher = more cells survive
GSK-J4 + Luminespib = compound: CCOC(=O)CCNc1cc(N2CCc3ccccc3CC2)nc(-c2ccccn2)n1 [GSK-J4] + CCNC(=O)c1noc(-c2cc(C(C)C)c(O)cc2O)c1-c1ccc(CN2CCOCC2)cc1 [Luminespib] (partner 0.01 µM)
Procedure, shortened: (§1)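 Lung cancer cell lines were seeded in 1536-well plates and dosed by pin tool the next day, with either a single drug or a fixed anchor-drug dose combined with five library-drug doses (not always all listed) spaced in √10 steps. Five days later, one step fixed the cells and stained their nuclei (final 0.05% Triton X-100, 1% formaldehyde, 1 ug/ml Hoechst), and nuclei were counted on 4× images. Relative viability is the nuclei count in treated wells divided by the count in vehicle wells, and each value is the median of duplicate plates.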

GSK-J4 + Crizotinib = compound: CCOC(=O)CCNc1cc(N2CCc3ccccc3CC2)nc(-c2ccccn2)n1 [GSK-J4] + C[C@@H](Oc1cc(-c2cnn(C3CCNCC3)c2)cnc1N)c1c(Cl)ccc(F)c1Cl [Crizotinib] (partner 1 µM)
Procedure, shortened: as §1

GSK-J4 + Bortezomib = compound: CCOC(=O)CCNc1cc(N2CCc3ccccc3CC2)nc(-c2ccccn2)n1 [GSK-J4] + CC(C)C[C@H](NC(=O)[C@H](Cc1ccccc1)NC(=O)c1cnccn1)B(O)O [Bortezomib] (partner 0.002 µM)
Procedure, shortened: as §1

GSK-J4 + Vorinostat = compound: CCOC(=O)CCNc1cc(N2CCc3ccccc3CC2)nc(-c2ccccn2)n1 [GSK-J4] + O=C(CCCCCCC(=O)Nc1ccccc1)NO [Vorinostat] (partner 1 µM)
Procedure, shortened: as §1

UMC-11
relative viability (GSK-J4 + Luminespib; first compound 0.5 µM): 0.996
relative viability (GSK-J4 + Luminespib; first compound 5 µM): 1.03
relative viability (GSK-J4 + Luminespib; first compound 15.81 µM): 0.971
relative viability (GSK-J4 + Luminespib; first compound 50 µM): 0.259
relative viability (GSK-J4 + Crizotinib; first compound 0.5 µM): 0.601
relative viability (GSK-J4 + Crizotinib; first compound 1.581 µM): 0.557
relative viability (GSK-J4 + Crizotinib; first compound 5 µM): 0.702
relative viability (GSK-J4 + Crizotinib; first compound 15.81 µM): 0.666
relative viability (GSK-J4 + Crizotinib; first compound 50 µM): 0.509
relative viability (GSK-J4 + Bortezomib; first compound 0.5 µM): 0.774
relative viability (GSK-J4 + Bortezomib; first compound 1.581 µM): 0.263
relative viability (GSK-J4 + Bortezomib; first compound 5 µM): 0.434
relative viability (GSK-J4 + Bortezomib; first compound 15.81 µM): 0.759
relative viability (GSK-J4 + Bortezomib; first compound 50 µM): 0.561
relative viability (GSK-J4 + Vorinostat; first compound 0.5 µM): 0.418
relative viability (GSK-J4 + Vorinostat; first compound 1.581 µM): 0.364
relative viability (GSK-J4 + Vorinostat; first compound 5 µM): 0.492
relative viability (GSK-J4 + Vorinostat; first compound 15.81 µM): 0.437
relative viability (GSK-J4 + Vorinostat; first compound 50 µM): 0.187
